From publication PMC7382501 (Nature Communications, 2020)

Experiments:
FasRLVL = FasRLVL (Mycobacterium tuberculosis, UniProt O05858, L106F/L185F/V163F); format: biochemical
FasRF123A = FasRF123A (Mycobacterium tuberculosis, UniProt O05858, F123A); format: binding
FasRL106F = FasRL106F (Mycobacterium tuberculosis, UniProt O05858, L106F); format: biochemical

CCCCCCCCCCCCCCCCCCCC(=O)SCCNC(=O)CCNC(=O)[C@H](O)C(C)(C)COP(=O)(O)OP(=O)(O)OC[C@H]1O[C@@H](n2cnc3c(N)ncnc32)[C@H](O)[C@@H]1OP(=O)(O)O [C20-CoA, arachidoyl-CoA]
protein–DNA complex in the presence of ligand (FasRLVL): remained bound to DNA
SPR association of FasRF123A to C20-CoA compared with FasRwt (FasRF123A): comparable association kinetics
acyl-CoA concentration at which the protein–DNA complex dissociates (FasRL106F): > 4 µM
